Assays:
Assay in all cases: KINOMEscan competition binding
Settings in all cases: compound 1.0 µM
[1] = molecular target: JAK1 JH1 catalytic (human) (UniProt P23458)
[2] = molecular target: MYLK3 (human) (UniProt Q32MK0)
[3] = molecular target: MAK (human) (UniProt P20794)
[4] = tested on: EGFR (human), P00533 [752-759 del]
[5] = molecular target: IRAK3 (human) (UniProt Q9Y616)
[6] = molecular target: CAMK2A (human) (UniProt Q9UQM7)
[7] = tested on: RET (human), P07949 [V804L]
[8] = molecular target: STK4 (human) (UniProt Q13043)
[9] = molecular target: ICK (human) (UniProt Q9UPZ9)
[10] = tested on: EIF2AK4 KD2 (human), Q9P2K8 [S808G]
[11] = molecular target: ERBB3 (human) (UniProt P21860)
[12] = molecular target: TYK2 JH2 pseudokinase (human) (UniProt P29597)
[13] = molecular target: DCLK3 (human) (UniProt Q9C098)
[14] = molecular target: PIK3CB (human) (UniProt P42338)
Sequence of PIK3CB (human) (P42338 whole entry, looked up): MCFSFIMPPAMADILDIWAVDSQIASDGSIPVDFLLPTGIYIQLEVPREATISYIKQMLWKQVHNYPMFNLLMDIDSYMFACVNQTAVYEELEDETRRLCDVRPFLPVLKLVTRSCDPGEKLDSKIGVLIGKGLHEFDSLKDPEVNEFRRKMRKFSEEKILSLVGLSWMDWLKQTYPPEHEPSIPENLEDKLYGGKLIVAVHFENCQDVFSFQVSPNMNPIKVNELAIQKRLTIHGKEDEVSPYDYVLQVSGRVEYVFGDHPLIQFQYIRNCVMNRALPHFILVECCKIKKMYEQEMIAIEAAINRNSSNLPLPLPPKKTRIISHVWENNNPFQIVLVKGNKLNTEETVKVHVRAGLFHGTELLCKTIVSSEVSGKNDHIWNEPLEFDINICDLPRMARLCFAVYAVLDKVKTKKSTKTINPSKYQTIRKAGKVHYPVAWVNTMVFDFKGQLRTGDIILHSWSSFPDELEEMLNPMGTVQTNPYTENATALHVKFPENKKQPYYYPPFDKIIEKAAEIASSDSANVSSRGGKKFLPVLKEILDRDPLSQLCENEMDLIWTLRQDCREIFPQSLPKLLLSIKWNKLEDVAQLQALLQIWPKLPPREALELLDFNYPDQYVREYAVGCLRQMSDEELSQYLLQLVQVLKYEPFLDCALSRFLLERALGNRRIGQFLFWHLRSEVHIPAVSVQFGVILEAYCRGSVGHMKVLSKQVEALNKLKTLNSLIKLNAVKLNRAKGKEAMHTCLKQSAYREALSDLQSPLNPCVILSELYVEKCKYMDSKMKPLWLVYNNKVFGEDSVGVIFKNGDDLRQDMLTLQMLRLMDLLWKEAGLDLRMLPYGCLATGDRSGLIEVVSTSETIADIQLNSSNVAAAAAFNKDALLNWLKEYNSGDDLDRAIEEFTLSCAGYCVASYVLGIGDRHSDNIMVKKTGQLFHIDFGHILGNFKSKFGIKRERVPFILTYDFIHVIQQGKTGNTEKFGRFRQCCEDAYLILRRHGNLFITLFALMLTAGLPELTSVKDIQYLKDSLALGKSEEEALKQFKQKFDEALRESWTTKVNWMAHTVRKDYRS

[15] = molecular target: MAPK1 (human) (UniProt P28482)
[16] = molecular target: JAK1 JH2 pseudokinase (human) (UniProt P23458)
Sequence of JAK1 JH2 pseudokinase (human) (P23458 whole entry, looked up): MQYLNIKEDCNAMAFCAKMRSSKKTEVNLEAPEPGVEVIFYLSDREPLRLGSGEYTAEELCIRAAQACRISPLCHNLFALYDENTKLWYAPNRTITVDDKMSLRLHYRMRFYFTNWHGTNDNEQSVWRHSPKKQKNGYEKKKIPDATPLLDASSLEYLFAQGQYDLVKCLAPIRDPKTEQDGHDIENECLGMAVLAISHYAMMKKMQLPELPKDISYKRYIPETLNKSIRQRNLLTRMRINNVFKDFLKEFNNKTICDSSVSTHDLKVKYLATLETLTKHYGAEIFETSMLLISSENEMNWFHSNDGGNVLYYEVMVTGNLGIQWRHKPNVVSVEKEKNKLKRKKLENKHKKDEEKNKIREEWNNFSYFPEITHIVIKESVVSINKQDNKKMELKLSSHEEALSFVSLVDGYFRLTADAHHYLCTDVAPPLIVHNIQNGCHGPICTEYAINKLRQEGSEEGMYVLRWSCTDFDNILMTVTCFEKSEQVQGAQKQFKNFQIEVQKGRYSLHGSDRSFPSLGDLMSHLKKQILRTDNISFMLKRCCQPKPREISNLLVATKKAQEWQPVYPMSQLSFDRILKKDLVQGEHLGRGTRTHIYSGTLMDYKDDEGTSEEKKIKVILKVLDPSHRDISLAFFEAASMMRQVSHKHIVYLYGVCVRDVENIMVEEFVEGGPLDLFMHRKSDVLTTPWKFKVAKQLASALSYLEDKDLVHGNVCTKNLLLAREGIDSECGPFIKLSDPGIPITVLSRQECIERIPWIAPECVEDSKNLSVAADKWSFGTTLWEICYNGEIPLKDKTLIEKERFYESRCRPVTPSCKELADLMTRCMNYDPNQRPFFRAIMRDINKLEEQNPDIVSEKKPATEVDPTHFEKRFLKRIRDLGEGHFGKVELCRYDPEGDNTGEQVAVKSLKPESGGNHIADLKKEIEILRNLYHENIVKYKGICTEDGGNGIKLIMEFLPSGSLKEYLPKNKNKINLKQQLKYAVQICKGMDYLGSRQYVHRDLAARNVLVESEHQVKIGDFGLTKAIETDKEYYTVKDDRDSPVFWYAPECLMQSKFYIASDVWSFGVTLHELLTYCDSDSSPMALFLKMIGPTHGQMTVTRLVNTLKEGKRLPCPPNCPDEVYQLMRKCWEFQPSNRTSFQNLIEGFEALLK

[17] = molecular target: CDK14 (human) (UniProt O94921)
[18] = molecular target: MAP2K1 (human) (UniProt Q02750)
Sequence of MAP2K1 (human) (Q02750 whole entry, looked up): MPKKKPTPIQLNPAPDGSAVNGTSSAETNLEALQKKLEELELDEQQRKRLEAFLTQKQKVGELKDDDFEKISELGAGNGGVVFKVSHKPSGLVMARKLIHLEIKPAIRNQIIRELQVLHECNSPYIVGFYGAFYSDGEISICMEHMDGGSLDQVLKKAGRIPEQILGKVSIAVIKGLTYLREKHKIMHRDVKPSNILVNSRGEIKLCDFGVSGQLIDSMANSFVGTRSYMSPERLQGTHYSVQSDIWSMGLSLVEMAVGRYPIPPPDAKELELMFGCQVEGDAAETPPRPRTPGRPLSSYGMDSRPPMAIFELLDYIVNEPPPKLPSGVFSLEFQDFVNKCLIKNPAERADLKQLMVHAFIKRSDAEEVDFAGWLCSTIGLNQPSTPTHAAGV

[19] = molecular target: ACVRL1 (human) (UniProt P37023)
Sequence of ACVRL1 (human) (P37023 whole entry, looked up): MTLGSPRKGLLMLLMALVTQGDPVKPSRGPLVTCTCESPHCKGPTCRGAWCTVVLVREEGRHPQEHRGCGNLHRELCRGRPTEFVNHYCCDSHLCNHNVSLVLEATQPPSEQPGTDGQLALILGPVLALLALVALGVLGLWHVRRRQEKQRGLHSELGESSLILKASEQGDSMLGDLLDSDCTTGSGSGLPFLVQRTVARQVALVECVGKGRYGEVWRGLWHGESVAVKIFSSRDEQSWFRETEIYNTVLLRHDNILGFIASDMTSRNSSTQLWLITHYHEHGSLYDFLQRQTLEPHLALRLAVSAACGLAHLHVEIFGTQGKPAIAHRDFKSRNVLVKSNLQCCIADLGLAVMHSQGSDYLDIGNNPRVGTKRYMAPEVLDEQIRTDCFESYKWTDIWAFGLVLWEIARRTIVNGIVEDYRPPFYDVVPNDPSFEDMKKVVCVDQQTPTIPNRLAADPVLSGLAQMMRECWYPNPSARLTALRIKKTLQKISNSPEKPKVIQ

[20] = molecular target: AAK1 (human) (UniProt Q2M2I8)
[21] = molecular target: DAPK2 (human) (UniProt Q9UIK4)
[22] = tested on: FLT3 (human), P36888 [D835Y]
[23] = tested on: FLT3 (human), P36888 [K663Q]
[24] = molecular target: LCK (human) (UniProt P06239)
[25] = molecular target: TEC (human) (UniProt P42680)
[26] = molecular target: CSNK1A1 (human) (UniProt P48729)
Sequence of CSNK1A1 (human) (P48729 whole entry, looked up): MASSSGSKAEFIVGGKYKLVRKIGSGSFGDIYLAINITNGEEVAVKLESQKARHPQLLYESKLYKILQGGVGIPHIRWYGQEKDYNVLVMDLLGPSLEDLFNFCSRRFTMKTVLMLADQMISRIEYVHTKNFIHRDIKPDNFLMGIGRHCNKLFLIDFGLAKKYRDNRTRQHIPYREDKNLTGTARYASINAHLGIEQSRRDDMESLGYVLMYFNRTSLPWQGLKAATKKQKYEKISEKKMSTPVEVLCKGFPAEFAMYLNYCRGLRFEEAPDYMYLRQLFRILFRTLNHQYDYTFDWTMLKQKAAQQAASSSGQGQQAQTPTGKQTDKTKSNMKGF

[27] = molecular target: PIK3CD (human) (UniProt O00329)
Sequence of PIK3CD (human) (O00329 whole entry, looked up): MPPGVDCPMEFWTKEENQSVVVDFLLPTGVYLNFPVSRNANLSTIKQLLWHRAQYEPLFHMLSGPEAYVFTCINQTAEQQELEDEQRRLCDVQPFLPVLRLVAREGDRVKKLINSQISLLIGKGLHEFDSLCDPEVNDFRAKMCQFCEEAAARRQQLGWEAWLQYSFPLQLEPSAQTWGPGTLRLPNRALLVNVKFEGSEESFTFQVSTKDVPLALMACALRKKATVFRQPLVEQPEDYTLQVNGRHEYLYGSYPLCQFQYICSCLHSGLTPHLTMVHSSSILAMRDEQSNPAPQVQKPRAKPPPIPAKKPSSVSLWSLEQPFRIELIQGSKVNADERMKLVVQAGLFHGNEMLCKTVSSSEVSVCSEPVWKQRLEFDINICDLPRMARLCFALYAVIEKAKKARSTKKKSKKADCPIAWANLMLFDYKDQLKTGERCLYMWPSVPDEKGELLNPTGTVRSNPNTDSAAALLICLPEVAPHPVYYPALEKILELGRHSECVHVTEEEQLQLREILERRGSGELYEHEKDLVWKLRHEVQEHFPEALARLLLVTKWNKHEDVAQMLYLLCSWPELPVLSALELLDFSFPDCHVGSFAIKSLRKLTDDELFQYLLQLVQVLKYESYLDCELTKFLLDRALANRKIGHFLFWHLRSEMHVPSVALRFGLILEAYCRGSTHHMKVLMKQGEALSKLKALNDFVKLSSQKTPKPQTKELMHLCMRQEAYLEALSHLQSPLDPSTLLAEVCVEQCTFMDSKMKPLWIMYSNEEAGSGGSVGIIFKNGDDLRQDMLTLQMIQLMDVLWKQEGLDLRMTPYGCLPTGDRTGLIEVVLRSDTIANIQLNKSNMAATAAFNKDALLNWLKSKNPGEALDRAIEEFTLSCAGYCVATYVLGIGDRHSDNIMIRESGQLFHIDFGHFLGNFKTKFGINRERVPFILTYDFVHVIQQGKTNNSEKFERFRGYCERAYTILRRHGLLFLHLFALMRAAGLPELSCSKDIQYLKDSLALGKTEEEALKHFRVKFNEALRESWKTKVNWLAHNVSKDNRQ

[28] = molecular target: MAPK14 (human) (UniProt Q16539)
[29] = tested on: FLT3 (human), P36888 [D835H]
[30] = molecular target: STK39 (human) (UniProt Q9UEW8)
[31] = molecular target: NUAK2 (human) (UniProt Q9H093)
[32] = molecular target: DDR1 (human) (UniProt Q08345)
[33] = molecular target: CSK (human) (UniProt P41240)
[34] = molecular target: TNK1 (human) (UniProt Q13470)
[35] = molecular target: CRK2 (P.falciparum) (UniProt P61075)
Sequence of CRK2 (P.falciparum) (P61075 whole entry, looked up): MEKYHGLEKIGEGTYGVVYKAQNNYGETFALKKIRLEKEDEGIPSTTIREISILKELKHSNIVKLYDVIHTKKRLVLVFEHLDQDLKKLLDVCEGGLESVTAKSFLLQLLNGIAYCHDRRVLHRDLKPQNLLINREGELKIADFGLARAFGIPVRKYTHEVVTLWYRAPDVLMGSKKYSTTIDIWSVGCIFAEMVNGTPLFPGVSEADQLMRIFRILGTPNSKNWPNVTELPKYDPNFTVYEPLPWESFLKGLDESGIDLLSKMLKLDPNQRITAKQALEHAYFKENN

[36] = tested on: PIK3CA (human), P42336 [E545K]
[37] = molecular target: MAP4K5 (human) (UniProt Q9Y4K4)
[38] = molecular target: MKNK1 (human) (UniProt Q9BUB5)
[39] = molecular target: NEK6 (human) (UniProt Q9HC98)
[40] = molecular target: MET (human) (UniProt P08581)
[41] = molecular target: PLK3 (human) (UniProt Q9H4B4)
[42] = molecular target: CAMKK2 (human) (UniProt Q96RR4)

Sequence of JAK1 JH1 catalytic (human) (P23458 whole entry, looked up): as the sequence (P23458 whole entry, looked up) above

## Cc1cc(NC(=O)c2cccc(NC(=O)/C=C/CN(C)C)c2)ccc1Nc1nccc(-c2cccnc2)n1
[1]
  kinase still bound, per cent of control: 98%
[2]
  kinase still bound, per cent of control: 100%
[3]
  kinase still bound, per cent of control: 100%
[4]
  kinase still bound, per cent of control: 79%
[5]
  kinase still bound, per cent of control: 85%
[6]
  kinase still bound, per cent of control: 100%
[7]
  kinase still bound, per cent of control: 100%
[8]
  kinase still bound, per cent of control: 100%
[9]
  kinase still bound, per cent of control: 92%
[10]
  kinase still bound, per cent of control: 100%
[11]
  kinase still bound, per cent of control: 93%
[12]
  kinase still bound, per cent of control: 80%
[13]
  kinase still bound, per cent of control: 100%
[14]
  kinase still bound, per cent of control: 79%
[15]
  kinase still bound, per cent of control: 99%
[16]
  kinase still bound, per cent of control: 91%
[17]
  kinase still bound, per cent of control: 88%
[18]
  kinase still bound, per cent of control: 94%
[19]
  kinase still bound, per cent of control: 96%
[20]
  kinase still bound, per cent of control: 69%
[21]
  kinase still bound, per cent of control: 77%
[22]
  kinase still bound, per cent of control: 58%
[23]
  kinase still bound, per cent of control: 75%
[24]
  kinase still bound, per cent of control: 100%
[25]
  kinase still bound, per cent of control: 100%
[26]
  kinase still bound, per cent of control: 73%
[27]
  kinase still bound, per cent of control: 95%
[28]
  kinase still bound, per cent of control: 100%
[29]
  kinase still bound, per cent of control: 82%
[30]
  kinase still bound, per cent of control: 95%
[31]
  kinase still bound, per cent of control: 70%
[32]
  kinase still bound, per cent of control: 93%
[33]
  kinase still bound, per cent of control: 100%
[34]
  kinase still bound, per cent of control: 60%
[35]
  kinase still bound, per cent of control: 90%
[36]
  kinase still bound, per cent of control: 100%
[37]
  kinase still bound, per cent of control: 100%
[38]
  kinase still bound, per cent of control: 81%
[39]
  kinase still bound, per cent of control: 100%
[40]
  kinase still bound, per cent of control: 100%
[41]
  kinase still bound, per cent of control: 66%
[42]
  kinase still bound, per cent of control: 93%

## CN(C)C/C=C/C(=O)Nc1cccc(C(=O)Nc2ccc(Nc3nccc(/C(C#N)=C4\Nc5ccccc5S4)n3)cc2)c1
[1]
  kinase still bound, per cent of control: 100%
[2]
  kinase still bound, per cent of control: 100%
[3]
  kinase still bound, per cent of control: 93%
[4]
  kinase still bound, per cent of control: 95%
[5]
  kinase still bound, per cent of control: 51%
[6]
  kinase still bound, per cent of control: 100%
[7]
  kinase still bound, per cent of control: 100%
[8]
  kinase still bound, per cent of control: 100%
[9]
  kinase still bound, per cent of control: 100%
[10]
  kinase still bound, per cent of control: 55%
[11]
  kinase still bound, per cent of control: 74%
[12]
  kinase still bound, per cent of control: 33%
[13]
  kinase still bound, per cent of control: 100%
[14]
  kinase still bound, per cent of control: 100%
[15]
  kinase still bound, per cent of control: 100%
[16]
  kinase still bound, per cent of control: 81%
[17]
  kinase still bound, per cent of control: 100%
[18]
  kinase still bound, per cent of control: 100%
[19]
  kinase still bound, per cent of control: 100%
[20]
  kinase still bound, per cent of control: 100%
[21]
  kinase still bound, per cent of control: 100%
[22]
  kinase still bound, per cent of control: 73%
[23]
  kinase still bound, per cent of control: 37%
[24]
  kinase still bound, per cent of control: 100%
[25]
  kinase still bound, per cent of control: 100%
[26]
  kinase still bound, per cent of control: 75%
[27]
  kinase still bound, per cent of control: 100%
[28]
  kinase still bound, per cent of control: 95%
[29]
  kinase still bound, per cent of control: 62%
[30]
  kinase still bound, per cent of control: 100%
[31]
  kinase still bound, per cent of control: 100%
[32]
  kinase still bound, per cent of control: 59%
[33]
  kinase still bound, per cent of control: 100%
[34]
  kinase still bound, per cent of control: 15%
[35]
  kinase still bound, per cent of control: 100%
[36]
  kinase still bound, per cent of control: 100%
[37]
  kinase still bound, per cent of control: 100%
[38]
  kinase still bound, per cent of control: 100%
[39]
  kinase still bound, per cent of control: 100%
[40]
  kinase still bound, per cent of control: 92%
[41]
  kinase still bound, per cent of control: 59%
[42]
  kinase still bound, per cent of control: 100%
